The text below walks through data of US9072901B2, “Cardiac neuromodulation and methods of using same” (The Board of Regents of the University of Oklahoma, priority 2001, dated 2015).

One data set has as its system C1-C2 spinal neurons. Kind of data set: Vagal inhibition of T3 neuron after ibotenic acid on dorsal C1-C2 spinal cord. It counts as in vivo. The note with it: approximately 20 min after ibotenic acid was placed on the spinal cord. The text has this: FIGS. […] Electrical stimulation of the left cervical vagus (A: LCVS; {30 V, 0.1 ms} ipsilateral to the cell) right cervical vagus (B; RCVS; contralateral) at different frequencies. Vagal stimulation reduced the discharge rate of the evoked response to noxious stimulation of the cardiac afferents intrapericardial injections of bradykinin (C). IA; ibotenic acid. The short horizontal bars represent the period of vagal stimulation, the long horizontal bar represents the bradykinin injection and the numbers indicate the frequencies tested.
Chemical disruption of the C1-C2 spinal neurons alters the effects of stimulation of the cardiac afferent input on the regulation of information processing in the cervical and thoracic spinal cord. In order to produce chemical disruption of cells, ibotenic acid was chosen because it is an excitotoxin that has been used effectively in previous studies. Ibotenic acid is a structurally rigid glutamate analog that destroys neuronal perikarya, but spares axons and non-neuronal cells. After ibotenic acid is injected into a nucleus or applied to the surface of the spinal cord, the cells in the region are initially excited and then enter a phase of depolarization block. […] The advantage of this methodology is that the neuronal relays in the C1-C2 segments can be disrupted without interrupting the axons that pass through this region. […]

For a further data set, the system named is C1 dorsal horn cells. The experiment in a line: Annexin fluorescence histochemistry after ibotenic acid pledget on C1-C2 spinal segments. It counts as in vivo, rats. The note with it: pledget on C1-C2 for 2 hrs, after 14-16 hrs. The text has this: After 14-16 hrs, rats were perfused with fixative and the medulla, C1-2, C3-5 segments were processed for annexin fluorescence histochemistry. Photomicrographs are from the C1 dorsal horn and the gray matter is outlined. […] White arrows point to unlabeled (black) cells in the dorsal horn. […] Annexin binding indicates cells with energy impairment and/or undergoing apotosis. Annexin belongs to a family of proteins that bind acidic phospholipids, particularly phosphotidylserine (PS). PS is assymetically distributed in the cell membrane by the enzyme, aminophospholipid translocase. Following energy impairment, PS distributes to the outer cell leaflet and annexin binding illustrates cells with PS on the outside of the cell.
Chemical disruption of the C1-C2 spinal neurons alters the effects of stimulation of the cardiac afferent input on the regulation of information processing in the cervical and thoracic spinal cord. In order to produce chemical disruption of cells, ibotenic acid was chosen because it is an excitotoxin that has been used effectively in previous studies. Ibotenic acid is a structurally rigid glutamate analog that destroys neuronal perikarya, but spares axons and non-neuronal cells. After ibotenic acid is injected into a nucleus or applied to the surface of the spinal cord, the cells in the region are initially excited and then enter a phase of depolarization block. […]

Take `N[C@H](C(=O)O)c1cc(=O)[nH]o1` [ibotenic acid]: the “inhibitory effects to vagal stimulation” value with C1-C2 spinal neurons is on record as “eliminated”. For the same compound, the “annexin staining of cells” value in the data set on C1 dorsal horn cells was “many annexin positive”.
